Data set [1] addresses T1, mouse TNF (Mus musculus, UniProt P06804).
T1 construct: stabilise an asymmetrical form of the soluble TNF trimer
T1 sequence (P06804 80-235 limits assumed): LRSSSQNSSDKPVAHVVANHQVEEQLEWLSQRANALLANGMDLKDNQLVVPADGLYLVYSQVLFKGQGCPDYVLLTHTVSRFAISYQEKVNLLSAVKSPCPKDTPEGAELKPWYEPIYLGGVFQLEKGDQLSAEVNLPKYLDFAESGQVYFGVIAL
The data set is described as follows: TNF L929 cytotoxicity assay, mouse TNF. The conditions noted are these: for Luminescence units: Mouse TNF, L929. It is filed as cell-based. The protocol: TNF (human or mouse) kills L929 cells which have been compromised by incubation with a sub-lethal concentration of actinomycin D, and this effect is inhibited with TNF biologics. Compounds were titrated in DMSO, and then pre-incubated with human or mouse TNF for 1 h. L929 cells (ECACC, #85011425) in media containing actinomycin D (2 µg/mL) were added to the TNF inhibitor mixture and incubated for 18 h. L929 cytotoxicity was measured by the addition of CellTitreGlo (Promega). Luminescence was measured after an incubation of at least 20 min in the dark. Percentage inhibition was calculated between unstimulated wells (maximum signal), and wells with TNF, DMSO and actinomycin D (minimum signal). The IC50 was calculated as the point of inflexion for a 4PL fitted curve. Mean IC50s are reported as a mean of at least two experiments. Cells were described as mycoplasma-free when purchased and were tested using Mycoalert (Lonza) after each batch of assay vial preparation.

Data set [2] deals with T1, mouse TNF. The data set is described as follows: TNF reporter gene assay HEK-293, mouse TNF. The conditions noted are these: HEK-293 NF-kB reporter gene assay. It is filed as cell-based. How it is done: Stimulation of HEK-293 cells by TNF leads to activation of the NF-κB pathway. The HEK-Blue^TM CD40L SEAP (secreted embryonic alkaline phosphatase) reporter cell line used to determine TNF activity (InvivoGen, #hkb-CD40, cells were described as mycoplasma free when purchased and were tested using Mycoalert [Lonza] after each batch of assay vial preparation). Compounds were titrated in DMSO and pre-incubated with TNF at a concentration giving half maximal response (10 pM for human or 20 pM for mouse) or the anti-human TNFR1 agonist antibody (R&D Systems. #AF 225) for 1 h. Cells were added to the compound/stimulus mixture and further incubated for 18 h. SEAP was measured using the colorimetric substrate HEK-Blue Detect^TM or QUANTI-Blue^TM from InvivoGen. Percentage inhibitions for compound dilutions were calculated between a DMSO control and maximum inhibition (by excess anti-TNF biologic, or NF-κB inhibitor–TPCA-1 [Tocris #2559, R&D Systems]). The IC50 was determined as the point of inflexion between the fitted minimum and maximum of the compound dose response curve, calculated using 4PL fitted curve. Mean IC50s are reported as a mean of at least two experiments. Dose response curves for TNF and the anti-human TNFR1 agonist antibody are shown in Supplementary Fig. 9.
Background: A reporter such as luciferase makes a cellular process visible.

Data set [3] deals with TNFR1 signalling complex (RIP-1, pNF-κB). As to the kind of experiment: TNFR1 immunoprecipitation and signalling assay (Jurkat cells). The class given is cell-based, human. The conditions noted are these: 10 µM compound pre-incubated 1 h with TNF 25 ng/mL, Western blot. How it is done:
Cells were then lysed for 1 h in cold lysis buffer (1% NP-40, 150 mM NaCl, 50 mM Tris pH 8.0, 25 mM NaF, 1 mM vanadate, 1% phosphatase inhibitor and 0.2% protease inhibitor cocktail), and cell supernatant harvested. TNFR1 immunoprecipitation was performed by incubating supernatant with 5 µg anti-TNFR1 antibody (R&D systems, #AB-225-PB) overnight while rotating at 4 °C, followed by the addition of 20 µL protein G sepharose beads for 1 h rotating at 4 °C. An isotype control sample was incubated with 5 µg goat IgG, instead of anti-TNFR1 antibody to assess how much unspecific binding to the beads occurs during immunoprecipitation. Beads were subsequently washed 3× in lysis buffer, and then the supernatant removed and SDS-PAGE reducing sample buffer added to beads and samples boiled for 10 min. Sample (15 µL) was then loaded on a 4–12% Bis-Tris gel and run for 65 min at 200 V in MOPS buffer. […] RIP-1 ubiquitination (1:250 dilution, BD, #610459) was then detected by Western blotting using anti-mouse-HRP (1:2000 dilution, Cell Signalling Technology, #7076). pNFκB (1:1000 dilution, Cell Signalling Technology, #3033) and GAPDH (1:4000 dilution, Cell Signalling Technology, #5174) were measured in the total cell lysates by Western blotting using anti-rabbit HRP (1:2000 dilution, Cell Signalling Technology, #7074). […]
(Immunoblotting shows a protein as a band on a membrane.)

Data set [4] in a line: Mouse free fraction. The class given is in vitro ADME. The conditions noted are these: read-out: Mouse free fraction (Fu).
The target of data set [5] is TNF (Homo sapiens, UniProt P01375). The data set is described as follows: Human TNF induced neutrophil recruitment in vivo. Further details: stabilise an asymmetrical form of the soluble TNF trimer. The note with it: for CD45+ GR-1+ cells/mL in the peritoneal cavity: human TNF, individual mice. The protocol: All in vivo studies were reviewed by an internal Ethical Review Body (ERB) and conducted in accordance with the Animals (Scientific Procedures) Act 1986, EU Directive 2010/63/EU. […] Anti-TNFα biologics, CDP571[21] (10 mg/kg) and etanercept (30 mg/kg), diluted in PBS, were dosed intravenously prior to human and mouse TNF challenge. Two hours after the TNF challenge, mice were sacrificed and the peritoneal cavity lavaged with 3 mL of FACS buffer. An aliquot (0.3 mL) of lavage fluid was used to assess the number CD45^+GR1^+ cells by flow cytometry. Briefly, the cells were treated with ACK lysis buffer, washed and suspended in FACS buffer prior to staining with FITC anti-mouse CD45 and PE anti-mouse GR1. Data are shown as mean ± standard error of the number of CD45^+GR-1^+ cells. Statistical significance (*p < 0.05, **p < 0.01, ****p < 0.0001) was determined using one-way ANOVA with Dunnett’s multiple comparison test.
Sequence of TNF (P01375 77-233 limits assumed): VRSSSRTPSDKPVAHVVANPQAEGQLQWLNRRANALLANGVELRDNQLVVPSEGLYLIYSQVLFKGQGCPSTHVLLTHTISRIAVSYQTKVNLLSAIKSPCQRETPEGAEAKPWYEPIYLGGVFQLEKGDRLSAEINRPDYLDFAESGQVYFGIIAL

Several values for one entry are separate records, joined by “and”; a condition that tells them apart may be missing. Identical values can stand only once.

One may read the IC50 as the concentration at which inhibition is half-maximal. For the compound `Cc1ccc(C)c(Cn2c(C(O)c3ccncc3)nc3ccc(-c4cnn(C)c4)cc32)c1` (stereo not shown) [UCB-9260], the Luminescence units in data set [1] (compound -logM 4.6) turned out to be 12797 Luminescence units; in data set [1] (compound -logM 5.08), 13525 Luminescence units; in data set [1] (compound -logM 5.56), 13101 Luminescence units; in data set [1] (compound -logM 6.03), 12546 Luminescence units; in data set [1] (compound -logM 6.51), 10886 Luminescence units; in data set [1] (compound -logM 6.99), 9129 Luminescence units. For the same compound, the Luminescence units in data set [1] (compound -logM 7.46) turned out to be 7403 Luminescence units; in data set [1] (compound -logM 7.94), 7468 Luminescence units; in data set [1] (compound -logM 8.42), 7718 Luminescence units; in data set [1] (compound -logM 8.9), 5980 Luminescence units. Moreover, the IC50 in data set [1] (mouse TNF, mouse L929 cells + actinomycin D, read-out: geometric mean IC50, TNF-dependent cytotoxicity) is 0.12 µM; in data set [2], 0.095 µM. In data set [3], the “RIP recruitment to TNFR signalling complex and phosphorylation of NF-κB” value is recorded as “markedly reduced”. Further, in data set [4], the fraction unbound was determined as 0.024. The “CD45+ GR-1+ cells/mL in the peritoneal cavity” value in data set [5] (10mg/kg) was 80382.4 cells/mL and 68398.8 cells/mL and 97517.0 cells/mL and 65083.3 cells/mL and 43379.0 cells/mL and 51529.8 cells/mL; in data set [5] (30mg/kg) it was 12661.4 cells/mL and 54428.1 cells/mL and 25233.7 cells/mL and 91899.5 cells/mL and 50362.8 cells/mL and 37741.7 cells/mL; in data set [5] (100mg/kg) it was 14437.1 cells/mL and 19826.5 cells/mL and 38381.4 cells/mL and 4238.2 cells/mL and 19466.7 cells/mL and 51556.6 cells/mL and 16326.3 cells/mL and 11513.0 cells/mL; in data set [5] (300mg/kg) it was 3894.3 cells/mL and 4438.0 cells/mL and 8909.7 cells/mL and 7748.4 cells/mL and 19700.6 cells/mL and 11113.9 cells/mL. For the same compound, the “dose with significant inhibition of neutrophil recruitment” value in data set [5] (oral, human TNF i.p., CD45+GR1+ cells) is on record as 30 mg/kg.

Source of the values: publication PMC6923382, “Small molecules that inhibit TNF signalling by stabilising an asymmetric form of the trimer” (Nature Communications, 2019).
